Laboratory results: patent US4904590A, “Antibiotic A80915 and process for its production” (Eli Lilly and Company, priority 1988, dated 1990)
≈ marks a conversion by molar mass, not a printed value. Where two headings read alike, the source gives them in different places.

Key:
[1] = system: Clostridium perfringens 81; assay: microbe, parasite or virus in culture; type: cell-based; settings: Clostridium perfringens, 81, 24 h
[2] = system: Clostridium septicum 1128; assay: Susceptibility of anaerobic bacterial isolates (MIC), agar-dilution; type: cell-based; settings: 24-hour incubation
Method: The A80915 antibiotics also are active against anaerobic bacteria. […] End points were read after 24-hour incubation.

[3] = system: Bacteriodes vulgatis 1211; assay: as above; type: cell-based
[4] = system: Peptostreptococcus intermedius 1264; assay: as above; type: cell-based; settings: Peptostreptococcus, 1264, 24 h
[5] = system: Bacteriodes thetaiotaomicron 1438; assay: as above; type: cell-based
Bacteriodes fragilis 111 = assay: as above; type: cell-based
[6] = system: Fusobacterium necrophorum 6054A; assay: as above; type: cell-based
Trichomonas foetus = assay: Anti-protozoan activity (MIC); type: cell-based; settings: Tritrichomonas foetus
Trichomonas vaginalis = assay: Anti-protozoan activity (MIC); type: cell-based
[7] = system: Eubacterium aerofaciens 1235; assay: Susceptibility of anaerobic bacterial isolates (MIC), agar-dilution; type: cell-based; settings: Collinsella aerofaciens, 1235, 24 h
[8] = system: Peptococcus asaccharolyticus 1302; assay: as above; type: cell-based
[9] = system: Staphylococcus epidermis EPI1; type: cell-based; settings: Staphylococcus epidermis EPI1; agar-dilution; read-out: MIC
Method: (§1) The A80915 antibiotics inhibit the growth of bacteria which are pathogenic to animal life. […] The MIC's in Table III were determined by conventional agar-dilution assays.

Staphylococcus sp. = type: cell-based; settings: Veterinary organism Staphylococcus sp.; agar-dilution
Method: as §1

Pasteurella multocida = type: cell-based; settings: Veterinary organism Pasteurella multocida; agar-dilution
Method: as §1

[10] = system: Staphylococcus epidermis 222; type: cell-based; settings: Staphylococcus epidermis 222; agar-dilution; read-out: MIC
Method: as §1

[11] = system: Bordetella bronchiseptica; type: cell-based; settings: Veterinary organism Bordetella bronchiseptica; agar-dilution
Method: as §1

[12] = system: Staphylococcus aureus X400; type: cell-based; settings: Staphylococcus aureus X400; agar-dilution; read-out: MIC
Method: as §1

[13] = system: Streptococcus pyogenes C203; type: cell-based; settings: Streptococcus pyogenes C203; agar-dilution; read-out: MIC
Method: as §1

[14] = system: Staphylococcus aureus V41; type: cell-based; settings: Staphylococcus aureus V41; agar-dilution; read-out: MIC
Method: as §1

Gram-negative = type: cell-based; settings: agar-dilution
Method: as §1

[15] = system: Streptococcus pneumoniae Park1; type: cell-based
Method: as §1

[16] = system: Streptococcus faecium X66; type: cell-based; settings: Enterococcus faecium; Streptococcus faecium X66; agar-dilution; read-out: MIC
Method: as §1

Pasteurella hemolytica = type: cell-based; settings: Veterinary organism Pasteurella hemolytica; agar-dilution
Method: as §1

Escherichia coli = type: cell-based; settings: Veterinary organism Escherichia coli; agar-dilution
Method: as §1

Mycoplasma hyopneumoniae = type: cell-based; settings: Mesomycoplasma hyopneumoniae; Veterinary organism Mycoplasma hyopneumoniae; agar-dilution
Method: as §1

[17] = system: Streptococcus faecium 2041; type: cell-based; settings: Enterococcus faecium; Streptococcus faecium 2041; agar-dilution; read-out: MIC
Method: as §1

Streptococcus sp. = type: cell-based; settings: Veterinary organism Streptococcus sp.; agar-dilution
Method: as §1

Salmonella typhimurium = type: cell-based; settings: Salmonella enterica; Veterinary organism Salmonella typhimurium; agar-dilution
Method: as §1

[18] = system: Staphylococcus aureus X1.1; type: cell-based; settings: Staphylococcus aureus X1.1; agar-dilution; read-out: MIC
Method: as §1

Mycoplasma gallisepticum = type: cell-based; settings: Mycoplasmoides gallisepticum; Veterinary organism Mycoplasma gallisepticum; agar-dilution
Method: as §1

Candida albicans = assay: Anti-fungal activity (MIC); type: cell-based
[19] = system: Bacteriodes fragilis 1936B; assay: Susceptibility of anaerobic bacterial isolates (MIC), agar-dilution; type: cell-based
[20] = Acute toxicity in mice, intraperitoneal injection; settings: mouse, in vivo, ip
Description: The acute toxicity of the A80915 antibiotics in mice, when administered by intraperitoneal injection and expressed as LD50, is shown in Table V.

[21] = system: Bacteriodes melaninogenicus 1856/28; assay: Susceptibility of anaerobic bacterial isolates (MIC), agar-dilution; type: cell-based
[22] = system: Fusobacterium symbiosum 1470; assay: as above; type: cell-based
[23] = system: Propionibacterium acnes 79; assay: as above; type: cell-based
[24] = system: Bacteriodes melaninogenicus 2736; assay: as above; type: cell-based
[25] = system: Bacteriodes fragilis 1877; assay: as above; type: cell-based
[26] = system: Peptostreptococcus anaerobius 1428; assay: as above; type: cell-based
[27] = system: Clostridium difficile 2994; assay: as above; type: cell-based; settings: Clostridioides difficile, 2994, 24 h
Peptococcus prevoti 1281 = assay: as above; type: cell-based; settings: 24 h
[28] = system: Bacteriodes corrodens 1874; assay: as above; type: cell-based
[29] = Spontaneous loss of nitrogen on standing in solvent; type: physicochemical; settings: standing at room temperature in a solvent such as methanol, ethanol or water
Description: Loss of nitrogen is accelerated by, for example, heating or the addition of salts or mild reducing agents such as sodium hyposulfite, and the like.

Compound `C=C1CCC(Cl)C(C)(C)C1CC12OC(C)(C)C(Cl)CC1(Cl)C(=O)c1c(cc(O)c(C)c1O)C2=O` (stereo not shown) [A80915A] has an MIC [1] of 4 µg/mL (≈ 7.55 µM), an MIC [2] of 4 µg/mL (≈ 7.55 µM) and an MIC ([3]; Bacteriodes vulgatis 1211, agar-dilution, 24-hour incubation, read-out: MIC) of over 128 µg/mL. The MIC [4] was 4 µg/mL (≈ 7.55 µM), the MIC ([5]; Bacteriodes thetaiotaomicron 1438, agar-dilution, 24-hour incubation, read-out: MIC) was over 128 µg/mL and the MIC (Bacteriodes fragilis 111; Bacteriodes fragilis 111, agar-dilution, 24-hour incubation, read-out: MIC) was over 128 µg/mL. The MIC ([6]; Fusobacterium necrophorum 6054A, agar-dilution, 24-hour incubation, read-out: MIC) was over 128 µg/mL, the MIC (Trichomonas foetus) was 50 µg/mL (≈ 94.4 µM) and the MIC (Trichomonas vaginalis) was 12.5 µg/mL (≈ 23.6 µM). The MIC [7] was 4 µg/mL (≈ 7.55 µM), the MIC ([8]; Peptoniphilus asaccharolyticus, Peptococcus asaccharolyticus 1302, agar-dilution, 24-hour incubation, read-out: MIC) was 16 µg/mL (≈ 30.2 µM) and the MIC [9] was 2 µg/mL (≈ 3.77 µM). For the same compound, the MIC (Staphylococcus sp.) was 0.1 µg/mL (≈ 0.189 µM), the MIC (Pasteurella multocida) was 3.12 µg/mL (≈ 5.89 µM) and the MIC [10] was 2 µg/mL (≈ 3.77 µM). For the same compound, the MIC [11] was over 50 µg/mL, the MIC [12] was 2 µg/mL (≈ 3.77 µM) and the MIC [13] was 32 µg/mL (≈ 60.4 µM). For the same compound, the MIC [14] was 2 µg/mL (≈ 3.77 µM), the MIC (Gram-negative) was over 128 µg/mL and the MIC ([15]; Streptococcus pneumoniae Park1, agar-dilution, read-out: MIC) was 32 µg/mL (≈ 60.4 µM). For the same compound, the MIC [16] was 2 µg/mL (≈ 3.77 µM), the MIC (Pasteurella hemolytica) was over 50 µg/mL and the MIC (Escherichia coli) was over 50 µg/mL. For the same compound, the MIC (Mycoplasma hyopneumoniae) was 3.12 µg/mL (≈ 5.89 µM), the MIC [17] was 8 µg/mL (≈ 15.1 µM) and the MIC (Streptococcus sp.) was 0.2 µg/mL (≈ 0.377 µM). It also gave an MIC (Salmonella typhimurium) of over 50 µg/mL, an MIC [18] of 2 µg/mL (≈ 3.77 µM) and an MIC (Mycoplasma gallisepticum) of 0.78 µg/mL (≈ 1.47 µM). It also gave an MIC (Candida albicans) of over 40 µg/mL, an MIC ([19]; Bacteriodes fragilis 1936B, agar-dilution, 24-hour incubation, read-out: MIC) of over 128 µg/mL and an LD50 [20] of 212 mg/kg. For the same compound, the MIC ([21]; Bacteriodes melaninogenicus 1856/28, agar-dilution, 24-hour incubation, read-out: MIC) was 2 µg/mL (≈ 3.77 µM), the MIC ([22]; Fusobacterium symbiosum 1470, agar-dilution, 24-hour incubation, read-out: MIC) was over 128 µg/mL and the MIC ([23]; Cutibacterium acnes, Propionibacterium acnes 79, agar-dilution, 24-hour incubation, read-out: MIC) was 32 µg/mL (≈ 60.4 µM). It also gave an MIC ([24]; Bacteriodes melaninogenicus 2736, agar-dilution, 24-hour incubation, read-out: MIC) of over 128 µg/mL, an MIC ([25]; Bacteriodes fragilis 1877, agar-dilution, 24-hour incubation, read-out: MIC) of over 128 µg/mL and an MIC ([26]; Peptostreptococcus anaerobius 1428, agar-dilution, 24-hour incubation, read-out: MIC) of over 128 µg/mL. For the same compound, the MIC [27] was 4 µg/mL (≈ 7.55 µM), the MIC (Peptococcus prevoti 1281) was 4 µg/mL (≈ 7.55 µM) and the MIC ([28]; Bacteriodes corrodens 1874, agar-dilution, 24-hour incubation, read-out: MIC) was over 128 µg/mL.

`C=C1CCC(Cl)C(C)(C)C1CC12OC(C)(C)C(Cl)CC1(Cl)C(=O)c1c(O)c(C)c([O-])c([N+]#N)c1C2=O` (stereo not shown) [A80915B] showed an MIC [1] of over 128 µg/mL, an MIC [2] of over 128 µg/mL and an MIC ([3]; 24 h) of over 128 µg/mL. It also gave an MIC [4] of 128 µg/mL (≈ 230 µM), an MIC ([5]; 24 h) of over 128 µg/mL and an MIC (Bacteriodes fragilis 111; 24 h) of over 128 µg/mL. For the same compound, the MIC ([6]; Fusobacterium necrophorum, 6054A, 24 h) was over 128 µg/mL, the MIC (Trichomonas foetus) was 12.5 µg/mL (≈ 22.5 µM) and the MIC (Trichomonas vaginalis) was 6.25 µg/mL (≈ 11.2 µM). It also gave an MIC [7] of over 128 µg/mL, an MIC ([8]; Peptoniphilus asaccharolyticus, 1302, 24 h) of 128 µg/mL (≈ 230 µM) and an MIC [9] of 2 µg/mL (≈ 3.6 µM). It also gave an MIC (Staphylococcus sp.) of under 0.05 µg/mL, an MIC (Pasteurella multocida) of 0.2 µg/mL (≈ 0.36 µM) and an MIC [10] of 2 µg/mL (≈ 3.6 µM). The MIC [11] was over 50 µg/mL, the MIC [12] was 2 µg/mL (≈ 3.6 µM) and the MIC [13] was 8 µg/mL (≈ 14.4 µM). The MIC [14] was 2 µg/mL (≈ 3.6 µM), the MIC (Gram-negative) was over 128 µg/mL and the MIC ([15]; Streptococcus pneumoniae, PARK1) was 8 µg/mL (≈ 14.4 µM). It also gave an MIC [16] of 8 µg/mL (≈ 14.4 µM), an MIC (Pasteurella hemolytica) of 12.5 µg/mL (≈ 22.5 µM) and an MIC (Escherichia coli) of over 50 µg/mL. It also gave an MIC (Mycoplasma hyopneumoniae) of 3.12 µg/mL (≈ 5.61 µM), an MIC [17] of 8 µg/mL (≈ 14.4 µM) and an MIC (Streptococcus sp.) of 0.1 µg/mL (≈ 0.18 µM). The MIC (Salmonella typhimurium) was over 50 µg/mL, the MIC [18] was 2 µg/mL (≈ 3.6 µM) and the MIC (Mycoplasma gallisepticum) was 0.1 µg/mL (≈ 0.18 µM). It also gave an MIC (Candida albicans) of 5 µg/mL (≈ 8.99 µM), an MIC ([19]; 24 h) of over 128 µg/mL and an LD50 [20] of 75 mg/kg. The MIC ([21]; 24 h) was 128 µg/mL (≈ 230 µM), the MIC ([22]; Fusobacterium, 1470, 24 h) was over 128 µg/mL and the “loss of nitrogen (stability)” value [29] was “spontaneously lose nitrogen”. For the same compound, the MIC ([23]; Cutibacterium acnes, 79, 24 h) was 128 µg/mL (≈ 230 µM), the MIC ([24]; 24 h) was over 128 µg/mL and the MIC ([25]; 24 h) was over 128 µg/mL. The MIC ([26]; Peptostreptococcus anaerobius, 1428, 24 h) was over 128 µg/mL, the MIC [27] was over 128 µg/mL and the MIC (Peptococcus prevoti 1281) was 64 µg/mL (≈ 115 µM). It also gave an MIC ([28]; 24 h) of over 128 µg/mL.
